In paper PMC11714206, “Massively Parallel Screening of Toll/Interleukin‐1 Receptor (TIR)‐Derived Peptides Reveals Multiple Toll‐Like Receptors (TLRs)‐Targeting Immunomodulatory Peptides” (Advanced Science, 2024):
Values belong to the sequence of their own block, whether it stands above or below them.

Target: T1, MyD88^TIR (Homo sapiens, UniProt Q99836)
T1 construct: MyD88 (residues 148–296); 6xHis; made in house; host or cells: E. coli BL21 (DE3)
Experiment: T‐Surf phage library (P8 and P3) selection against MyD88^TIR, four rounds, NGS read counts
Type: binding
Conditions: for Population: 4th round of selection against MyD88 TIR, share of NGS reads; for P3_MyD88 Rank (after) / P3_MyD88 Rank (before): P3 library; for P8_MyD88 Rank (after) / P8_MyD88 Rank (before): P8 library
Method in brief: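 Coat TIR domain 5 µg mL^−1 overnight; block 0.2% BSA/PBS 1 h, 4 °C; add phage library 1 h, RT; wash ×4 PBS/0.5% Tween‐20; elute 100 mM HCl, neutralize Tris; amplify in TG1, PEG‐precipitate. Repeat to round 4; barcode PCR, NovaSeq, count reads.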

[1] = P3_MyD88: rank by count after grouping
[2] = P3_MyD88: rank by count before grouping
[3] = P3_MyD88 pool: P3 T-Surf phage library
[4] = selection against MyD88, rank after grouping
[5] = selection against MyD88, rank before grouping
[6] = selection against MyD88, rank by count after grouping
[7] = selection against MyD88, rank by count before grouping
[8] = selection against MyD88 TIR, rank by count after grouping
[9] = selection against MyD88 TIR, rank by count before grouping
[10] = 4R selection against MyD88, rank after grouping
[11] = 4R selection against MyD88, rank before grouping
[12] = P8_MyD88: rank by count after grouping
[13] = P8_MyD88: rank by count before grouping
[14] = P8_MyD88 pool: P8 T-Surf phage library
[15] = P8_MyD88: rank by NGS read count after grouping
[16] = P8_MyD88: rank by NGS read count before grouping

T1 sequence (Q99836 148-296): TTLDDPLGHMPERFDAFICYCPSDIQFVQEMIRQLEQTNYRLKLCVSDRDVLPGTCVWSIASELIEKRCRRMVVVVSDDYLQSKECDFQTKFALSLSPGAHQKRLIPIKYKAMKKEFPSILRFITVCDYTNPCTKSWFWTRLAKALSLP

Sequence: SSFRKGLWRLLELSKK
Population [3]: 0.00408%

Sequence: SSFRQGLWRLRELSKK
Rank (after) [1]: 405
Rank (before) [2]: 3229

Sequence: SSFRRPVASAGTEQK
Rank (after) [1]: 471
Rank (before) [2]: 3247

Sequence: SSFRVGLWRLLELSKK
Population [3]: 0.00291%

Sequence: SSFSEGLWRLLELRKK
P3_MyD88 Rank (after) [8]: 191
P3_MyD88 Rank (before) [9]: 3251

Sequence: SSIREGLWRQLELSKK
P3_MyD88 Rank (after) [10]: 665
P3_MyD88 Rank (before) [11]: 3277

Sequence: SSLLEGRWALLELSKK
Rank (after) [1]: 459
Rank (before) [2]: 3253

Sequence: SSLREGLWPLLELSKK
Rank (after) [1]: 94
Rank (before) [2]: 1214

Sequence: SSLREGLWRLLELGKK
P3_MyD88 Rank (after) [10]: 597
P3_MyD88 Rank (before) [11]: 3255

Sequence: SSLREGLWRLLELSKR
P3_MyD88 Rank (after) [8]: 209
P3_MyD88 Rank (before) [9]: 3257

Sequence: SSLREGLWRLQELSKK
Rank (after) [1]: 135
Rank (before) [2]: 3273

Sequence: SSRWALDELVHIMQAL
Rank (after) [12]: 161
Rank (before) [13]: 179
Population [14]: 0.00771%

Sequence: SSSFALHELATILEAL
Rank (after) [12]: 412
Rank (before) [13]: 1290

Sequence: SSWREGLCRLLELRNK
P3_MyD88 Rank (after) [4]: 501
P3_MyD88 Rank (before) [5]: 3264

Sequence: SSYRQGLWRLLELSKK
P3_MyD88 Rank (after) [4]: 485
P3_MyD88 Rank (before) [5]: 3267

Sequence: STAMTNRGFHTFRDND
P3_MyD88 Rank (after) [6]: 688
P3_MyD88 Rank (before) [7]: 1427

Sequence: STTYLQWGDNWFWDKL
P8_MyD88 Rank (after) [6]: 740
P8_MyD88 Rank (before) [7]: 3819

Sequence: SWAVDELLKILQAWDE
Rank (after) [12]: 137
Rank (before) [13]: 151
Population [14]: 0.0108%

Sequence: SWYLDEVAKIIDAMKE
Rank (after) [12]: 133
Rank (before) [13]: 144
Population [14]: 0.0116%

Sequence: THSHNAVPAAANLSGW
Rank (after) [1]: 404
Rank (before) [2]: 3289

Sequence: TSHLHHAPRPNEIETL
P3_MyD88 Rank (after) [10]: 653
P3_MyD88 Rank (before) [11]: 3323

Sequence: TSHLHRAWRLNELRTY
P3_MyD88 Rank (after) [8]: 284
P3_MyD88 Rank (before) [9]: 3294

Sequence: TSTWALDELLRILY
Rank (after) [15]: 912
Rank (before) [16]: 3824

Sequence: TYLWWVEDERGQEYFW
P8_MyD88 Rank (after) [8]: 221
P8_MyD88 Rank (before) [9]: 370

Sequence: VANIGLIGSILWALK
Rank (after) [15]: 942
Rank (before) [16]: 2163

Sequence: VANILGYHCIDWEHFVGIED
P8_MyD88 Rank (after) [6]: 722
P8_MyD88 Rank (before) [7]: 2169

Sequence: VANILGYHCKGWENFV
P8_MyD88 Rank (after) [10]: 674
P8_MyD88 Rank (before) [11]: 2170

Results, then the sequence that gave them:

Rank (after) [1]: 395
Rank (before) [2]: 3228
Sequence: SSFRESLWRLLALNKR

Population [3]: 0.0032%
Sequence: SSFRESLWRLLELSKK

P3_MyD88 Rank (after) [4]: 528
P3_MyD88 Rank (before) [5]: 3131
Sequence: SSFRGGLWRLLELRKE

Population [3]: 0.00349%
Sequence: SSFRGGLWRLLELSKK

Rank (after) [1]: 150
Rank (before) [2]: 3231
Sequence: SSFRKGLWRLLELLKK

P3_MyD88 Rank (after) [6]: 717
P3_MyD88 Rank (before) [7]: 3230
Sequence: SSFRKGVWRVRKLSKK

Rank (after) [1]: 415
Rank (before) [2]: 3270
Sequence: SSGRECLWRLLELRKK

Rank (after) [1]: 453
Rank (before) [2]: 3276
Sequence: SSICEGLWRLLELSKK

Population [3]: 0.00291%
Sequence: SSLREGLWRLLELSKK

Rank (after) [1]: 424
Rank (before) [2]: 3274
Sequence: SSRRERLWRLLELSKK

Rank (after) [15]: 887
Rank (before) [16]: 3809
Sequence: SSRWALDELVQILHARELF

Population [3]: 0.0032%
Sequence: SSSREGLWRLLELSKK

P8_MyD88 Rank (after) [8]: 198
P8_MyD88 Rank (before) [9]: 294
Sequence: SSTWALDELERILEYM

P3_MyD88 Rank (after) [4]: 516
P3_MyD88 Rank (before) [5]: 3268
Sequence: SSVRECLWRLLELSKK

Rank (after) [1]: 455
Rank (before) [2]: 3269
Sequence: SSVRGGRWGLVELGKK

P8_MyD88 Rank (after) [10]: 634
P8_MyD88 Rank (before) [11]: 3803
Sequence: SSWWALEELAHIIE

P3_MyD88 Rank (after) [6]: 739
P3_MyD88 Rank (before) [7]: 3266
Sequence: SSYRESLRRLPALSKK

P8_MyD88 Rank (after) [10]: 625
P8_MyD88 Rank (before) [11]: 3756
Sequence: SWAVDELLQILHARELF

P3_MyD88 Rank (after) [8]: 272
P3_MyD88 Rank (before) [9]: 2936
Sequence: SWGQSFLKSPLGWLFA

Rank (after) [12]: 188
Rank (before) [13]: 237
Sequence: TEPADTAFWDALWNKL

Rank (after) [12]: 140
Rank (before) [13]: 152
Population [14]: 0.01%
Sequence: TSHFLDSYWAMFELNM

Population [14]: 0.0262%
Sequence: TSTWALDELWLILEQR

Rank (after) [12]: 464
Rank (before) [13]: 2165
Sequence: VANILGCHWIDWECFV
